# Where two headings read alike, the source gives them in different places.
# Experiments:
# [1] = test system: human cerebral vessels (CGRP-induced dilation); experiment: Ex Vivo Human Cerebral Artery Assay, reversal of CGRP-induced relaxation; settings: reversal of 1 nM hCGRP-induced relaxation, vessels pre-contracted with 10 mM KCl
# From the text: Rationale and Overview. To provided direct evidence of the ability for novel compounds to reverse CGRP-induced dilation in human cerebral vessels, an ex vivo assay was design. Briefly, isolated vessel rings were mounted in a tissue bath where vessels were pre-contracted with potassium chloride (KCl) and fully dilated with hCGRP, then this relaxation was reversed by the cumulative addition of CGRP-receptor antagonists (complete details follow).
# Tissue Samples. Autopsy samples of human arteries were obtained from vendors (ABS Inc. or NDRI). All vessels were transported on ice-cold HEPES buffer (composition in mM: NaCl 130, KCl 4, KH2PO4 1.2, MgSO4 1.2, CaCl2 1.8, Glucose 6, NaHCO3 4, HEPES 10, EDTA 0.025). Upon receipt, the vessels were placed in cold Kreb's buffer (composition in mM: NaCl 118.4, KCl 4.7, KH2PO4 1.2, MgSO4 1.2, CaCl2 1.8, Glucose 10.1, NaHCO3 25) saturated with carbogen (5% CO2 and 95% oxygen).
# Isolated Tissue Baths. The vessels were cleaned of connective tissues and cut into cylindrical segments of 4-5 mm in length. The vessels were then mounted in tissue baths between two stainless steel hooks; one of which is fixed and the other of which was connected to a force displacement transducer. The vessel tension was continuously recorded using a data acquisition system (Powerlab, ADInstruments, Mountain View, Calif.) connected to the transducer. The tissue baths containing Krebs buffer and mounted vessels were temperature (37° C.) and pH (7.4) controlled with continuous bubbling of carbogen. The artery segments were allowed to equilibrate for about 30-45 min until a stable resting tone was achieved. Prior to the assay, vessels were primed (conditioned) with 100 mM KCl and subsequently washed. The vessels were pre-contracted with 10 mM KCl and fully dilated with 1 nM hCGRP. Concentration-response curves to CGRP-receptor antagonists were performed by the cumulative addition of drugs in half log units in fully dilated vessels. At each concentration, the effects of the drugs were expressed as % reversal of CGRP-induced relaxation in each vessel. The actual assay and data analysis were performed for each vessel individually, fitting the concentration-response data to a four parameter logistic function by non-linear regression analysis, to estimate the EC50 values.
# [2] = molecular target: T1, human CGRP receptor (SK-N-MC cells) (Homo sapiens, UniProt O60894+Q16602); experiment: Cyclic AMP Assay, functional antagonism of CGRP-induced cyclic AMP formation; type: cell-based
# T1 construct: SK-N-MC cells that endogenously express the human CGRP receptor; endogenous in cells; host or cells: SK-N-MC cells
# T1 sequence (Q16602 23-461): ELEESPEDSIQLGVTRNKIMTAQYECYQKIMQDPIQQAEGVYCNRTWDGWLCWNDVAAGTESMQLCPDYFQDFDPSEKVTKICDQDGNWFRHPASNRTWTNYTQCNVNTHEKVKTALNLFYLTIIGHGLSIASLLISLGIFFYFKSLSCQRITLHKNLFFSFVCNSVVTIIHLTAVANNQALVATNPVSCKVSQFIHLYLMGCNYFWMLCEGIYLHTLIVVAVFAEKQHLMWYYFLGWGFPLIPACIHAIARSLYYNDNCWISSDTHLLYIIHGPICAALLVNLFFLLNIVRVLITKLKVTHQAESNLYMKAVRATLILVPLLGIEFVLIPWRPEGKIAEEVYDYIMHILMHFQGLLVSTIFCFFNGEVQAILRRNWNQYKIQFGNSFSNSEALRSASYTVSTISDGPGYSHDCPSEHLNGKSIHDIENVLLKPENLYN
# T1 sequence (O60894 27-148): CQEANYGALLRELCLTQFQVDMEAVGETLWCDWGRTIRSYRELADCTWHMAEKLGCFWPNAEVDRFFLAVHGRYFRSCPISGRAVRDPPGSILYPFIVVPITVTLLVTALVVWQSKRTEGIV
# Experimental: Functional Antagonism. Antagonism of the compounds of invention was determined by measuring the formation of cyclic AMP (adenosine 3′5′-cyclic monophosphate) in SK-N-MC cells that endogenously express the human CGRP receptor. […] For cyclic AMP measurements SK-N-MC cells were incubated with 0.3 nM CGRP alone or in the presence of various concentrations of the compounds of invention for 30 min at room temperature. […] Cyclic AMP was extracted using the lysis reagent and its concentration was determined by radioimmunoassay using RPA559 cAMP SPA Direct Screening Assay Kit (Amersham Pharmacia Biotech). IC50 values were calculated using Excel fit.
# [3] = molecular target: T2, CGRP receptor (SK-N-MC cell membranes) (Homo sapiens, UniProt O60894+Q16602); experiment: CGRP Binding Assay ([125I]-CGRP radioligand binding, SK-N-MC homogenate)
# T2 construct: endogenous in cells; host or cells: SK-N-MC cells (membrane homogenate)
# T2 sequence (Q16602 23-461): as the sequence (Q16602 23-461) above
# T2 sequence (O60894 27-148): as the sequence (O60894 27-148) above
# [4] = SK-N-MC cells, 0.3 nM CGRP, read-out: cAMP Function IC50
# [5] = displacement of [125I]-CGRP, SK-N-MC homogenate, read-out: CGRP binding IC50
Structure (SMILES),EC50 [1],"IC50 [2, 4]","IC50 [3, 5]",IC50 [2],IC50 [3]
"O=C(C[C@H](Nc1ccc2[nH]ccc2c1)C(=O)N1CCC(N2CCCCC2)CC1)N1CCC(N2Cc3ccccc3NC2=O)CC1 [Example 86, (L)-1-[1,4′]Bipiperidinyl-1′-yl-2-(1H-indol-5-ylamino)-4-[4-(2-oxo-1,4-dihydro-2H-quinazolin-3-yl)-piperidin-1-yl]-butane-1,4-dione]",100 to 1000 nM,10 to 100 nM,100 to 1000 nM,–,–
"O=C(NC(CN1CCc2[nH]ncc2C1)C(=O)N1CCC(N2CCCCC2)CC1)N1CCC(N2Cc3ccccc3NC2=O)CC1 (racemic) [Example 54, (±)-4-(2-Oxo-1,4-dihydro-2H-quinazolin-3-yl)-piperidine-1-carboxylic acid[2-[1,4′]bipiperidinyl-1′-yl-2-oxo-1-(1,4,6,7-tetrahydro-pyrazolo[4,3-c]pyridin-5-ylmethyl)-ethyl]-amide]",< 10 nM,100 to 1000 nM,10 to 100 nM,–,–
"Cc1cc(CC(CC(=O)N2CCC3(CC2)OC(=O)Nc2ccccc23)C(=O)N(C)C)cc2cn[nH]c12 (racemic) [Example 76, (±)-N,N-Dimethyl-2-(7-methyl-1H-indazol-5-ylmethyl)-4-oxo-4-[1′,2′-dihydro-2′-oxospiro-[4H-3′,1-benzoxazine-4,4′-piperidinyl]-butyramide]",< 10 nM,10 to 100 nM,10 to 100 nM,–,–
"Cc1cc(CC(NC(=O)N2CCC(N3Cc4ccccc4NC3=O)CC2)C(=O)N2CCCC2)cc2cn[nH]c12 (racemic) [Example 20, (±)-4-(2-Oxo-1,4-dihydro-2H-quinazolin-3-yl)-piperidine-1-carboxylic acid[1-(7-methyl-1H-indazol-5-ylmethyl)-2-oxo-2-pyrrolidin-1-yl-ethyl]-amide]",< 10 nM,< 10 nM,< 10 nM,–,–
O=C1Nc2ccccc2C2(CCN(C(=O)C[C@H](Cc3csc4ccccc34)C(=O)N3CCC(N4CCCCC4)CC3)CC2)O1 [Example 65],10 to 100 nM,10 to 100 nM,< 10 nM,–,–
"Cc1cc(CC(CC(=O)N2CCC(N3Cc4ccccc4NC3=O)CC2)C(=O)N(C)C)cc2cn[nH]c12 (racemic) [Example 72, (±)-N,N-Dimethyl-2-(7-methyl-1H-indazol-5-ylmethyl)-4-oxo-4-[4-(2-oxo-1,4-dihydro-2H-quinazolin-3-yl)-piperidin-1-yl]-butyramide]",< 10 nM,< 10 nM,< 10 nM,–,–
"CC(C)CN1CCN(C(=O)C(Cc2ccc3[nH]ccc3c2)NC(=O)N2CCC(n3c(=O)[nH]c4ccccc43)CC2)CC1 (racemic) [Example 7, (±)-4-(2-Oxo-2,3-dihydro-benzoimidazol-1-yl)-piperidine-1-carboxylic acid[1-(1H-indol-5-ylmethyl)-2-(4-isobutyl-piperazin-1-yl)-2-oxo-ethyl]-amide]",–,100 to 1000 nM,100 to 1000 nM,–,–
"CC(C)(C)OC(=O)n1ncc2cc(CC(CC(=O)N3CCC(N4Cc5ccccc5NC4=O)CC3)C(=O)N3CCC(N4CCCCC4)CC3)ccc21 (racemic) [Example 83, (±)-5-{2-([1,4′]Bipiperidinyl-1′-carbonyl)-4-oxo-4-[4-(2-oxo-1,4-dihydro-2H-quinazolin-3-yl)-piperidin-1-yl]-butyl}-indazole-1-carboxylic acid tert-butyl ester]",–,100 to 1000 nM,10 to 100 nM,–,–
"O=C(NC(Cc1ccc2[nH]ncc2c1)C(=O)N1CCC(N2CCCCC2)CC1)N1CCC(n2c(=O)[nH]c3ccccc32)CC1 (racemic) [Example 4, (±)-4-(2-Oxo-2,3-dihydro-benzoimidazol-1-yl)-piperidine-1-carboxylic acid[2-[1,4′]bipiperidinyl-1′-yl-1-(1H-indazol-5-ylmethyl)-2-oxo-ethyl]-amide]",–,10 to 100 nM,10 to 100 nM,–,–
"O=C1Nc2ccccc2C2(CCN(C(=O)CC(Cc3ccc4[nH]ncc4c3)C(=O)N3CCC(N4CCCCC4)CC3)CC2)O1 (racemic) [Example 79, (±)-1-[1,4′]Bipiperidinyl-1′-yl-2-(1H-indazol-5-ylmethyl)-4-[1′,2′-dihydro-2′-oxospiro-[4H-3′,1-benzoxazine-4,4′-piperidinyl]-butane-1,4-dione]",–,100 to 1000 nM,10 to 100 nM,–,–
"Cc1cc(CC(NC(=O)N2CCC3(CC2)NC(=O)Nc2ccccc23)C(=O)N2CCCCC2)cc2cn[nH]c12 (racemic) [Example 24, (±)-1-(7-Methyl-1H-indazol-5-ylmethyl)-2-(1-piperidinyl)-2-oxoethyl]-2′,3′-dihydro-2′-oxospiro-[piperidine-4,4′-(1H)-quinazoline]-1-carboxamide]",–,10 to 100 nM,10 to 100 nM,–,–
"Cc1cc(CC(CC(=O)N2CCC3(CC2)OC(=O)Nc2ccccc23)C(=O)N2CCCCC2)cc2cn[nH]c12 (racemic) [Example 77, (±)-2-(7-Methyl-1H-indazol-5-ylmethyl)-1-(piperidin-1-yl)-4-[1′,2′-dihydro-2′-oxospiro-[4H-3′,1-benzoxazine-4,4′-piperidinyl]-butane-1,4-dione]",–,10 to 100 nM,10 to 100 nM,–,–
"O=C(C[C@H](Nc1nc(Cl)nc2[nH]cnc12)C(=O)N1CCC(N2CCCCC2)CC1)N1CCC(N2Cc3ccccc3NC2=O)CC1 [Example 89, (L)-1-[1,4′]Bipiperidinyl-1′-yl-2-(2-chloro-9H-purin-6-ylamino)-4-[4-(2-oxo-1,4-dihydro-2H-quinazolin-3-yl)-piperidin-1-yl]-butane-1,4-dione]",–,10 to 100 nM,100 to 1000 nM,–,–
"O=C(NC(Cc1ccc2[nH]ccc2c1)C(=O)N1CCC2(CC1)OCCO2)N1CCC(n2c(=O)[nH]c3ccccc32)CC1 (racemic) [Example 8, (±)-4-(2-Oxo-2,3-dihydro-benzoimidazol-1-yl)-piperidine-1-carboxylic acid[2-(1,4-dioxa-8-aza-spiro[4.5]dec-8-yl)-1-(1H-indol-5-ylmethyl)-2-oxo-ethyl]-amide]",–,–,–,100 to 1000 nM,100 to 1000 nM
"O=C1Nc2ccccc2C2(CCN(C(=O)N[C@H](Cc3csc4ccccc34)C(=O)N3CCC(N4CCCCC4)CC3)CC2)O1 [Example 64, N-[(1R)-1-(Benzo[b]thien-3-ylmethyl)-2-[1,4′-bipiperidin]-1′-yl-2-oxoethyl]-1,2-dihydro-2-oxospiro-[4H-3,1-benzoxazine-4,4′-piperidine]-1′-carboxamide]",10 to 100 nM,–,10 to 100 nM,–,–
"O=C(CC(Cc1ccc2[nH]ncc2c1)C(=O)N1CCC2(CC1)OCCO2)N1CCC(N2Cc3ccccc3NC2=O)CC1 (racemic) [Example 81, (±)-1-(1,4-Dioxa-8-aza-spiro[4.5]dec-8-yl)-2-(1H-indazol-5-ylmethyl)-4-[4-(2-oxo-1,4-dihydro-2H-quinazolin-3-yl)-piperidin-1-yl]-butane-1,4-dione]",–,–,10 to 100 nM,100 to 1000 nM,–
"O=C(NC(Cc1ccc2[nH]ncc2c1)C(=O)N1CCC2(CC1)OCCO2)N1CCC(N2Cc3ccccc3NC2=O)CC1 (racemic) [Example 11, (±)-4-(2-Oxo-1,4-dihydro-2H-quinazolin-3-yl)-piperidine-1-carboxylic acid[2-(1,4-dioxa-8-aza-spiro[4.5]dec-8-yl)-1-(1H-indazol-5-ylmethyl)-2-oxo-ethyl]-amide]",–,–,10 to 100 nM,10 to 100 nM,–
"Cc1cc(CC(CC(=O)N2CCC(N3Cc4ccccc4NC3=O)CC2)C(=O)N2CC(C)OC(C)C2)cc2cn[nH]c12 (racemic) [Example 73, (±)-1-(2,6-Dimethyl-morpholin-4-yl)-2-(7-methyl-1H-indazol-5-ylmethyl)-4-[4-(2-oxo-1,4-dihydro-2H-quinazolin-3-yl)-piperidin-1-yl]-butane-1,4-dione]",–,10 to 100 nM,10 to 100 nM,–,–
"O=C(C[C@H](NCc1ccc2[nH]ncc2c1)C(=O)N1CCC(N2CCCCC2)CC1)N1CCC(N2Cc3ccccc3NC2=O)CC1 [Example 94, (L)-1-[1,4′]Bipiperidinyl-1′-yl-2-((5′-indazolyl)-methyl-amino)-4-[4-(2-oxo-1,4-dihydro-2H-quinazolin-3-yl)-piperidin-1-yl]-butane-1,4-dione]",–,100 to 1000 nM,100 to 1000 nM,–,–
